Data taken from patent US7063829B2, “Wasp family protein fragments, and use thereof” (Centre National de la Recherche Scientifique, priority 1999, dated 2006).

Assays:
actin polymerisation = assay: Cellular actin polymerisation test with GST-WH2/A beads in cell extracts; type: biochemical, human
From the text: The GST-WH2/A protein was absorbed onto 500 nm latex beads (Polyscience Inc., 400 Valley Road, Warrington Pa., USA) following the manufacturers' instructions.
Moreover, the components recruited onto the surface of the beads, are targets for tyrosine kinase signalling pathways. Thanks to this in vitro system, it is now possible to study the conditions necessary for actin polymerisation in cells, a process which up to now has not been accessible to direct experimental manipulation.
The cellular actin polymerisation test of the invention has all these characteristics. Beads measuring 200–500 nm can be produced by absorbing purified GST-WH2/A recombinant protein on their surface. […] The beads are then added to extracts prepared from supernatants of lysed cells in culture. The volume of extract necessary for an experiment is of the order of a few microlitres, reducing the cost of the experiment. These extracts have the advantage that they can be produced in a large quantity and stored for a long period, at −80° C. Before the addition of these beads, a fluorescent actin derivative (commercial actin-rhodamine) is added to the extract to make the actin polymerisation visible by epifluorescence microscopy. The actin polymerisation is observed 15 min after the addition of the beads, resulting in an accumulation of fluorescent actin around the beads. […]

actin cytoskeleton = settings: after some years of use; cited from earlier work
[1] = system: actin polymerisation on the surface of GST-WA particles; assay: Inhibition of actin polymerisation induced by GST-WA protein on particles in HeLa extracts; type: biochemical, human
Protocol: Inhibition of actin polymerisation induced by GST-WA protein: 10 μm polystyrene particles (Polysciences inc.) are covered to saturation with GST-WA protein according to the manufacturer's protocol. The particles are resuspended to 1% solid in PBS (Phosphate Buffer Saline) and stored on ice. To test the independence of the actin polymerisation mechanism induced by GST-WA we prepared three solutions. Each sample contained 15 μl of HeLa extracts (supplemented with ATP, creatine phosphate and actin marked with rhodamine), 0.5 μl of GST-WA particles and 1.5 μl of PBS (A), or 1.5 μl of GST-WA protein at 1 mg/ml (B) or 1.5 μl of GST-PRO protein (PRO corresponding to the fragment delimited by the amino acids situated at positions 235 to 584 of the ActA protein of Listeria monocytogenes) at 1 mg/ml (C). 6 μl of the final mixture of these three solutions were sealed between slide and coverglass. We observed fluorescence (rhodamine actin) around the particles for thirty minutes and measured the intensity of fluorescence on a population of forty beads using a microscope (Leica) and a linear digital camera (Micromax Princeton instrument). The average intensity M (arbitrary unit) was 95,000±13,000 for sample A (positive control). For sample B, M=0±1000, the actin polymerisation on the surface of the particles was inhibited by the addition of GST-WA in solution. […]

C=C1[C@@H](C)[C@H]2[C@H](Cc3ccccc3)NC(=O)[C@]23[C@H](OC(C)=O)/C=C/[C@@](C)(O)C(=O)[C@@H](C)C/C=C/[C@H]3[C@@H]1O [cytochalasin D]
sensitivity of the screening test to known medicaments inhibiting actin polymerisation (actin polymerisation): sensitive

latrunculin
sensitivity of the screening test to known medicaments inhibiting actin polymerisation (actin polymerisation): sensitive

CCCC(CCC)C(=O)O [valproic acid]
teratogenic properties due to secondary effects on the actin cytoskeleton (actin cytoskeleton): teratogenic properties

B1: GST-WA: recombinant fusion of GST, WH2/A domain of human WASP (positions 404-502, SEQ ID NO: 4) and myc9E10 epitope (protein)
chain: PSSGNGPAPPPLPPALVPAGGLAPGGGRGALLDQIRQGIQLNKTPGAPESSALQPPPQSSEGLVGALMHVMQKRSRAIHSSDEGEDQAGDEDEDDEWDDEQKLISEEDL
modifications: left off: a dimerising Fc or GST
average intensity M of fluorescence (rhodamine actin) around the particles ([1]; 1.5 μl protein at 1 mg/ml added to 15 μl HeLa extracts + 0.5 μl GST-WA particles (10 μm polystyrene), thirty minutes, forty beads, PBS control (sample A) 95,000±13,000): 0±1000 arbitrary unit | actin polymerisation on the surface of the particles after addition of the protein in solution ([1]; protein at 1 mg/ml in solution, HeLa extracts, GST-WA particles): inhibited
